Experimental data reported in US20250257034A1, “INDOLE DERIVATIVES AS SEROTONERGIC AGENTS USEFUL FOR THE TREATMENT OF DISORDERS RELATED THERETO” (priority 2023, published 2025).
Values joined by “and” are separate entries in the source; they are usually repeats but may differ in a detail not shown here. Equal entries are not always repeated. Where two headings read alike, the source gives them in different places.

Key:
[1] = Pharmacokinetic studies in rat (i.v.); type: in vivo; details: rat plasma; for Apparent t1/2 / half-life: estimated from 2 points only; for concentration at 0.25 h / concentration at 1 h / half-life / AUC(0-t) / concentration at 4 h: male, Sprague-Dawley, rat, plasma, iv; for concentration at 0.25 h / concentration at 1 h / concentration at 4 h: read-out: Plasma concentration; for half-life: read-out: Apparent t1/2 (converted); for AUC(0-t): read-out: AUC0-tlast
Experimental: Animals: Male Sprague-Dawley rats (˜225-350 g) from Charles River Labs were acclimatized for a minimum of 5 days prior to start of study procedures. Body weights were recorded on the day of dosing.
Any abnormalities were documented including presence/absence of wet dog shakes/back muscle contractions (WDS/BMC).
Dosing: Formulations were administered intravenously (i.v.) via the tail vein using a 25 G needle connected to a 1 cc syringe.
The Compounds of Formula (I) were freshly prepared at the appropriate concentrations in 5% Tween-80 in saline.
Blood collection time (h): 0.25, 1 and 4.
Volume/time-point: ˜0.25 mL […] (saphenous vein).
Instrumentation: AB Sciex QTRAP 4000 or 6500 MS/MS system equipped with an LC system with a binary pump, a solvent degasser, a thermostatted column compartment and a multiplate autosampler.
Analysis software: Phoenix® WinNonlin® 8.3 (Pharsight, Certara, Mountainview, CA).
Analysis methods: non-compartmental analysis, linear up/log down trapezoidal rule.
PK parameters: t1/2 and AUC0-tlast were be estimated.
Volume/time-point: ˜0.25 mL (saphenous vein).
PK parameters: t1/2 and AUC0-tlast were estimated.

[2] = Rat liver microsomes stability; type: in vitro ADME; details: Rat liver microsomes; for microsomal CLint at 2 μM / half-life at 2 μM / CLint scaled at 2 μM: male; for microsomal CLint at 2 μM: rat, liver microsomes, read-out: CLint (μL/min/mg protein); for microsomal CLint at 2 μM / half-life at 2 μM: 2 μM compound, 0.5 mg/mL microsomes, 1 mM NADPH; for half-life at 2 μM: 37° C; for CLint scaled at 2 μM: read-out: Scaled-up CLint
Procedure, shortened: (§1)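 Test compound at 2 μM final was incubated at 37° C with pooled human, male rat or male mouse liver microsomes in phosphate buffer with MgCl2 and 1 mM NADPH.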

[3] = Human liver microsomes stability; type: in vitro ADME; details: Human liver microsomes; for half-life at 2 μM / microsomal CLint at 2 μM: 2 μM compound, 0.5 mg/mL microsomes, 1 mM NADPH; for half-life at 2 μM: 37° C; for microsomal CLint at 2 μM: read-out: CLint (μL/min/mg protein); for CLint scaled at 2 μM: read-out: Scaled-up CLint
Procedure, shortened: as §1

[4] = Mouse liver microsomes stability; type: in vitro ADME; details: Mouse liver microsomes; for microsomal CLint at 2 μM / half-life at 2 μM / CLint scaled at 2 μM: male; for microsomal CLint at 2 μM: mouse, liver microsomes, read-out: CLint (μL/min/mg protein); for microsomal CLint at 2 μM / half-life at 2 μM: 2 μM compound, 0.5 mg/mL microsomes, 1 mM NADPH; for half-life at 2 μM: 37° C; for CLint scaled at 2 μM: read-out: Scaled-up CLint
[5] = I-1 1.10 mg/kg i.v., individual rats R04-R06, 1.1 mg/kg
[6] = 1.1 mg/kg, I-1 1.10 mg/kg i.v., Mean ± SD
[7] = 1.1 mg/kg, I-1 1.10 mg/kg i.v., individual rats R04-R06
[8] = I-12 1.2 mg/kg i.v., individual rats R01-R03, 1.2 mg/kg
[9] = 1.2 mg/kg, I-12 1.2 mg/kg i.v., individual rats R01-R03
[10] = I-13 1.14 mg/kg i.v., individual rats R04-R06, 1.14 mg/kg
[11] = 1.14 mg/kg, I-13 1.14 mg/kg i.v., individual rats R04-R06

[2H]C([2H])([2H])N(CCc1c[nH]c2ccc(SC)cc12)C([2H])([2H])[2H] [Compound I-1, N,N-Bis(methyl-d3)-2-(5-(methylthio)-1H-indol-3-yl)ethan-1-amine]
Plasma concentration ([1]; I-1 1.10 mg/kg i.v., 0.25 h, individual rats R04-R06, 1.1 mg/kg): 15.7 ng/mL and 16.9 ng/mL
Plasma concentration ([1]; I-1 1.10 mg/kg i.v., 1 h, individual rats R04-R06, 1.1 mg/kg): 0.835 ng/mL and 0.354 ng/mL and 0.298 ng/mL
Plasma concentration (ng/mL) ([1]; I-1 1.10 mg/kg i.v., 4 h, individual rats R04-R06): BLQ (BLQ denotes below the lower limit of quantitation (0.5 ng/mL))
AUC0-tlast [1, 5]: 10.9 ng·h/mL and 12.0 ng·h/mL
Apparent t1/2 [1, 5]: 8.22 min and 7.74 min
concentration at 0.25 h ([1]; 1.1 mg/kg, I-1 1.10 mg/kg i.v., 0.25 h, Mean ± SD): 16.4 ± 0.624 ng/mL
concentration at 0.25 h ([1]; 1.1 mg/kg, I-1 1.10 mg/kg i.v., 0.25 h, individual rats R04-R06): 16.6 ng/mL
concentration at 1 h ([1]; 1.1 mg/kg, I-1 1.10 mg/kg i.v., 1 h, Mean ± SD): 0.496 ± 0.295 ng/mL
half-life [1, 6]: 8.82 ± 1.44 min
AUC(0-t) [1, 6]: 11.3 ± 0.587 ng·h/mL
half-life [1, 7]: 10.4 min
AUC(0-t) [1, 7]: 11.1 ng·h/mL
Predicted hepatic CL [2]: >50.17 mL/min/kg
microsomal CLint at 2 μM [2]: > 307 µL/min/mg
half-life at 2 μM [2]: < 4.51 min
CLint scaled at 2 μM [2]: > 550 mL/min/kg
Predicted hepatic CL [3]: 19.31 mL/min/kg
half-life at 2 μM [3]: 6.04 min
microsomal CLint at 2 μM [3]: 230 µL/min/mg
CLint scaled at 2 μM [3]: 288 mL/min/kg
Predicted hepatic CL [4]: 81.96 mL/min/kg
microsomal CLint at 2 μM [4]: 210 µL/min/mg
half-life at 2 μM [4]: 6.61 min
CLint scaled at 2 μM [4]: 918 mL/min/kg

CCN(CC)CCc1c[nH]c2ccc(SC)cc12 [Compound I-12, N,N-Diethyl-2-(5-(methylthio)-1H-indol-3-yl)ethan-1-amine]
Plasma concentration ([1]; I-12 1.2 mg/kg i.v., 0.25 h, individual rats R01-R03, 1.2 mg/kg): 53.6 ng/mL and 72.4 ng/mL and 30.1 ng/mL
Plasma concentration ([1]; I-12 1.2 mg/kg i.v., 1 h, individual rats R01-R03, 1.2 mg/kg): 36.4 ng/mL and 29.7 ng/mL
Plasma concentration ([1]; I-12 1.2 mg/kg i.v., 4 h, individual rats R01-R03, 1.2 mg/kg): 3.88 ng/mL and 2.55 ng/mL and 6.48 ng/mL
AUC0-tlast [1, 8]: 97.8 ng·h/mL and 75.7 ng·h/mL
Apparent t1/2 [1, 8]: 46.7 min
concentration at 0.25 h ([1]; 1.2 mg/kg, I-12 1.2 mg/kg i.v., 0.25 h, Mean ± SD): 52 ± 21.2 ng/mL
concentration at 1 h ([1]; 1.2 mg/kg, I-12 1.2 mg/kg i.v., 1 h, Mean ± SD): 31.2 ± 4.6 ng/mL
concentration at 1 h ([1]; 1.2 mg/kg, I-12 1.2 mg/kg i.v., 1 h, individual rats R01-R03): 27.6 ng/mL
concentration at 4 h ([1]; 1.2 mg/kg, I-12 1.2 mg/kg i.v., 4 h, Mean ± SD): 4.3 ± 2 ng/mL
AUC(0-t) ([1]; 1.2 mg/kg, I-12 1.2 mg/kg i.v., Mean ± SD): 84.7 ± 11.6 ng·h/mL
half-life [1, 9]: 60.6 min
AUC(0-t) [1, 9]: 80.6 ng·h/mL
half-life ([1]; 1.2 mg/kg, I-12 1.2 mg/kg i.v., mean (n = 2)): 53.6 min
Predicted hepatic CL [2]: 30.14 mL/min/kg
microsomal CLint at 2 μM [2]: 37 µL/min/mg
half-life at 2 μM [2]: 37.4 min
CLint scaled at 2 μM [2]: 66.4 mL/min/kg
Predicted hepatic CL [3]: 15.84 mL/min/kg
half-life at 2 μM [3]: 25.8 min
microsomal CLint at 2 μM [3]: 53.8 µL/min/mg
CLint scaled at 2 μM [3]: 67.5 mL/min/kg
Predicted hepatic CL [4]: 82.50 mL/min/kg
microsomal CLint at 2 μM [4]: 226 µL/min/mg
half-life at 2 μM [4]: 6.13 min
CLint scaled at 2 μM [4]: 990 mL/min/kg

CCN(C)CCc1c[nH]c2ccc(SC)cc12 [Compound I-13, N-Ethyl-N-methyl-2-(5-(methylthio)-1H-indol-3-yl)ethan-1-amine]
Plasma concentration ([1]; I-13 1.14 mg/kg i.v., 0.25 h, individual rats R04-R06, 1.14 mg/kg): 45.7 ng/mL and 86.5 ng/mL and 113 ng/mL
Plasma concentration ([1]; I-13 1.14 mg/kg i.v., 1 h, individual rats R04-R06, 1.14 mg/kg): 46.7 ng/mL and 29.7 ng/mL
Plasma concentration ([1]; I-13 1.14 mg/kg i.v., 4 h, individual rats R04-R06, 1.14 mg/kg): 3.51 ng/mL and 1.11 ng/mL and 0.449 ng/mL
AUC0-tlast [1, 10]: 109 ng·h/mL and 103 ng·h/mL
Apparent t1/2 [1, 10]: 28.6 min
concentration at 0.25 h ([1]; 1.14 mg/kg, I-13 1.14 mg/kg i.v., 0.25 h, Mean ± SD): 81.7 ± 33.9 ng/mL
concentration at 1 h ([1]; 1.14 mg/kg, I-13 1.14 mg/kg i.v., 1 h, Mean ± SD): 42.9 ± 11.7 ng/mL
concentration at 1 h ([1]; 1.14 mg/kg, I-13 1.14 mg/kg i.v., 1 h, individual rats R04-R06): 52.2 ng/mL
concentration at 4 h ([1]; 1.14 mg/kg, I-13 1.14 mg/kg i.v., 4 h, Mean ± SD): 1.69 ± 1.61 ng/mL
AUC(0-t) ([1]; 1.14 mg/kg, I-13 1.14 mg/kg i.v., Mean ± SD): 105 ± 3.64 ng·h/mL
half-life [1, 11]: 35.1 min
AUC(0-t) [1, 11]: 102 ng·h/mL
half-life ([1]; 1.14 mg/kg, I-13 1.14 mg/kg i.v., mean (n = 2)): 31.9 min
Predicted hepatic CL [2]: 42.35 mL/min/kg
microsomal CLint at 2 μM [2]: 102 µL/min/mg
half-life at 2 μM [2]: 13.7 min
CLint scaled at 2 μM [2]: 182 mL/min/kg
Predicted hepatic CL [3]: 18.16 mL/min/kg
half-life at 2 μM [3]: 11.7 min
microsomal CLint at 2 μM [3]: 118 µL/min/mg
CLint scaled at 2 μM [3]: 148 mL/min/kg
Predicted hepatic CL [4]: >84.35 mL/min/kg
microsomal CLint at 2 μM [4]: > 307 µL/min/mg
half-life at 2 μM [4]: < 4.51 min
CLint scaled at 2 μM [4]: > 1340 mL/min/kg
